{
  "source": "patent US11919901B2",
  "about": "(Syndax Pharmaceuticals, Inc., priority 2021, dated 2024)",
  "data": [
    {"system": "MV4-11 cells", "assay": "Cell proliferation assay MV4;11 (CellTiter-Glo, 72 hours)", "format": "cell-based", "settings": "Homo sapiens; MV4;11 leukemia cell line, 72 hours; read-out: MV4; 11 IC50", "outline": "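MV4-11 cells (MLL1-AF4 fusion) exposed 72 h at 37 °C to 8 compound concentrations, final 0.632–2000 nM. Viability by CellTiter-Glo luminescence as % of vehicle RLU; % max inhibition = 100 − viability at top concentration.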", "units": {"IC50": "nM"}, "values": [
      {"smiles": "CC(C)N(CC(F)F)C(=O)c1cc(F)ccc1Oc1nncnc1N1CC2(CCN(C[C@@H]3CC[C@@H](NS(=O)(=O)N4CCC4)CO3)CC2)C1", "note": "[Example 189, 2-((5-(7-(((2S,5R)-5-(Azetidine-1-sulfonamido)tetrahydro-2H-pyran-2-yl)methyl)-2,7-diazaspiro[3.5]nonan-2-yl)-1,2,4-triazin-6-yl)oxy)-N-(2,2-difluoroethyl)-5-fluoro-N-isopropylbenzamide]", "IC50": "< 100"},
      {"smiles": "C[C@@H]1COC[C@H](C)N1C(=O)c1cc(F)ccc1Oc1cncnc1N1CC2(CCN(C[C@@H]3CC[C@@H](NS(=O)(=O)NCC(F)(F)F)CO3)CC2)C1", "note": "[Example 162, {[(3R,6S)-6-{[2-(5-{2-[(3R,5S)-3,5-Dimethylmorpholine-4-carbonyl]-4-fluorophenoxy}pyrimidin-4-yl)-2,7-diazaspiro[3.5]nonan-7-yl]methyl}oxan-3-yl]sulfamoyl}(2,2,2-trifluoroethyl)amine]", "IC50": "< 100"},
      {"smiles": "CC(C)N(C(=O)c1cc(F)ccc1Oc1cncnc1N1CC2(CCN(C[C@@H]3CC[C@@H](NS(=O)(=O)N4CC5(CCOC5)C4)CO3)CC2)C1)C(C)C", "note": "[Example 223, 2-((4-(7-(((2S,5R)-5-(6-Oxa-2-azaspiro[3.4]octane-2-sulfonamido)tetrahydro-2H-pyran-2-yl)methyl)-2,7-diazaspiro[3.5]nonan-2-yl)pyrimidin-5-yl)oxy)-5-fluoro-N,N-diisopropylbenzamide]", "IC50": "< 100"},
      {"smiles": "CCN(C(=O)c1cc(F)ccc1Oc1cncnc1N1CC2(CCN(C[C@@H]3CC[C@@H](NC(=O)NCC4CC4)CO3)CC2)C1)C(C)C", "note": "[Example 42, 2-((4-(7-(((2S,5R)-5-(3-(Cyclopropylmethyl)ureido)tetrahydro-2H-pyran-2-yl)methyl)-2,7-diazaspiro[3.5]nonan-2-yl)pyrimidin-5-yl)oxy)-N-ethyl-5-fluoro-N-isopropylbenzamide]", "IC50": "100 to 1000"},
      {"smiles": "CC(C)N(CC(F)F)C(=O)c1cc(F)ccc1Oc1cncnc1N1CC2(CCN(C[C@@H]3CC[C@@H](NS(C)(=O)=O)CO3)CC2)C1", "note": "[Example 96, N-(2,2-Difluoroethyl)-5-fluoro-N-isopropyl-2-((4-(7-(((2S,5R)-5-(methylsulfonamido)tetrahydro-2H-pyran-2-yl)methyl)-2,7-diazaspiro[3.5]nonan-2-yl)pyrimidin-5-yl)oxy)benzamide]", "IC50": "< 100"},
      {"smiles": "CC(C)N(CC(F)(F)F)C(=O)c1cc(F)ccc1Oc1nncnc1N1CC2(CCN(C[C@H]3CC[C@H](NS(=O)(=O)N4CCC4)CO3)CC2)C1", "note": "(stereo in doubt) [Example 194, 2-((5-(7-(((2R,5S)-5-(Azetidine-1-sulfonamido)tetrahydro-2H-pyran-2-yl)methyl)-2,7-diazaspiro[3.5]nonan-2-yl)-1,2,4-triazin-6-yl)oxy)-5-fluoro-N-isopropyl-N-(2,2,2-trifluoroethyl)benzamide]", "IC50": "< 100"},
      {"smiles": "CCNS(=O)(=O)N[C@@H]1CC[C@@H](CN2CCC3(CC2)CN(c2ncncc2Oc2ccc(F)cc2C(=O)N(C(C)C)C2CC(F)(F)C2)C3)OC1", "note": "[Example 155, N-(3,3-Difluorocyclobutyl)-2-((4-(7-(((2S,5R)-5-((N-ethylsulfamoyl)amino)tetrahydro-2H-pyran-2-yl)methyl)-2,7-diazaspiro[3.5]nonan-2-yl)pyrimidin-5-yl)oxy)-5-fluoro-N-isopropylbenzamide]", "IC50": "< 100"},
      {"smiles": "CCNS(=O)(=O)N[C@@H]1CC[C@@H](CN2CCC3(CC2)CN(c2ncncc2Oc2ccc(F)cc2C(=O)N(CC(F)F)C(C)C)C3)OC1", "note": "[Example 147, N-(2,2-Difluoroethyl)-2-((4-(7-(((2S,5R)-5-((N-ethylsulfamoyl)amino)tetrahydro-2H-pyran-2-yl)methyl)-2,7-diazaspiro[3.5]nonan-2-yl)pyrimidin-5-yl)oxy)-5-fluoro-N-isopropylbenzamide]", "IC50": "< 100"},
      {"smiles": "C[C@@H]1COC[C@@H](C)N1C(=O)c1cc(F)ccc1Oc1cncnc1N1CC2(CCN(C[C@@H]3CC[C@@H](NS(=O)(=O)N4CCC[C@@H]4C)CO3)CC2)C1", "note": "[Example 209, (S)-N-((3R,6S)-6-((2-(5-(2-((3R,5R)-3,5-Dimethylmorpholine-4-carbonyl)-4-fluorophenoxy)pyrimidin-4-yl)-2,7-diazaspiro[3.5]nonan-7-yl)methyl)tetrahydro-2H-pyran-3-yl)-2-methylpyrrolidine-1-sulfonamide]", "IC50": "< 100"},
      {"smiles": "CCN(C(=O)c1cc(F)ccc1Oc1cncnc1N1CC2(CCN(C[C@@H]3CC[C@@H](NS(=O)(=O)N(C)C)CO3)CC2)C1)C(C)C", "note": "[Example 49, 2-((4-(7-(((2S,5R)-5-((N,N-Dimethylsulfamoyl)amino)tetrahydro-2H-pyran-2-yl)methyl)-2,7-diazaspiro[3.5]nonan-2-yl)pyrimidin-5-yl)oxy)-N-ethyl-5-fluoro-N-isopropylbenzamide]", "IC50": "< 100"},
      {"smiles": "CC(C)N(CC(F)F)C(=O)c1cc(F)ccc1Oc1cncnc1N1CC2(CCN(C[C@@H]3CC[C@@H](NS(=O)(=O)N4CCC4)CO3)CC2)C1", "note": "[Example 99, 2-((4-(7-(((2S,5R)-5-(Azetidine-1-sulfonamido)tetrahydro-2H-pyran-2-yl)methyl)-2,7-diazaspiro[3.5]nonan-2-yl)pyrimidin-5-yl)oxy)-N-(2,2-difluoroethyl)-5-fluoro-N-isopropylbenzamide]", "IC50": "< 100"},
      {"smiles": "CC(C)N(C(=O)c1cc(F)ccc1Oc1cncnc1N1CC2(CCN(C[C@@H]3CC[C@@H](NS(=O)(=O)N(C)C)CO3)CC2)C1)C1COC1", "note": "[Example 249, 2-((4-(7-(((2S,5R)-5-((N,N-Dimethylsulfamoyl)amino)tetrahydro-2H-pyran-2-yl)methyl)-2,7-diazaspiro[3.5]nonan-2-yl)pyrimidin-5-yl)oxy)-5-fluoro-N-isopropyl-N-(oxetan-3-yl)benzamide]", "IC50": "< 100"},
      {"smiles": "CCN(C(=O)c1cc(F)ccc1Oc1cncnc1N1CC2(CCN(C[C@@H]3CC[C@@H](NS(=O)(=O)c4cccc(OC)c4)CO3)CC2)C1)C(C)C", "note": "[Example 66, N-Ethyl-5-fluoro-N-isopropyl-2-((4-(7-(((2S,5R)-5-((3-methoxyphenyl)sulfonamido)tetrahydro-2H-pyran-2-yl)methyl)-2,7-diazaspiro[3.5]nonan-2-yl)pyrimidin-5-yl)oxy)benzamide]", "IC50": "< 100"},
      {"smiles": "CCCNC(=O)N[C@@H]1CC[C@@H](CN2CCC3(CC2)CN(c2ncncc2Oc2ccc(F)cc2C(=O)N(CC)C(C)C)C3)OC1", "note": "[Example 38, N-Ethyl-5-fluoro-N-isopropyl-2-((4-(7-(((2S,5R)-5-(3-propylureido)tetrahydro-2H-pyran-2-yl)methyl)-2,7-diazaspiro[3.5]nonan-2-yl)pyrimidin-5-yl)oxy)benzamide]", "IC50": "100 to 1000"},
      {"smiles": "CCN(C(=O)c1cc(F)ccc1Oc1cncnc1N1CC2(CCN(C[C@@H]3CC[C@@H](NC(=O)OC(C)(C)C)CO3)CC2)C1)C(C)C", "note": "[Example 11, tert-Butyl ((3R,6S)-6-((2-(5-(2-(ethyl(isopropyl)carbamoyl)-4-fluorophenoxy)pyrimidin-4-yl)-2,7-diazaspiro[3.5]nonan-7-yl)methyl)tetrahydro-2H-pyran-3-yl)carbamate]", "IC50": "< 100"},
      {"smiles": "C[C@@H]1COC[C@@H](C)N1C(=O)c1cc(F)ccc1Oc1cncnc1N1CC2(CCN(C[C@@H]3CC[C@@H](NS(=O)(=O)N4CCC4)CO3)CC2)C1", "note": "[Example 121, N-((3R,6S)-6-((2-(5-(2-((3R,5R)-3,5-Dimethylmorpholine-4-carbonyl)-4-fluorophenoxy)pyrimidin-4-yl)-2,7-diazaspiro[3.5]nonan-7-yl)methyl)tetrahydro-2H-pyran-3-yl)azetidine-1-sulfonamide]", "IC50": "< 100"},
      {"smiles": "CC(C)N(C(=O)c1cc(F)ccc1Oc1cncnc1N1CC2(CCN(C[C@@H]3CC[C@@H](NS(=O)(=O)C4CC4)CO3)CC2)C1)[C@@H]1CCOC1", "note": "[Example 164, 2-((4-(7-(((2S,5R)-5-(Cyclopropanesulfonamido)tetrahydro-2H-pyran-2-yl)methyl)-2,7-diazaspiro[3.5]nonan-2-yl)pyrimidin-5-yl)oxy)-5-fluoro-N-isopropyl-N-((R)-tetrahydrofuran-3-yl)benzamide]", "IC50": "< 100"},
      {"smiles": "CCN(C(=O)c1cc(F)ccc1Oc1cncnc1N1CC2(CCN(C[C@@H]3CC[C@@H](NS(=O)(=O)c4ccc(OC)cc4)CO3)CC2)C1)C(C)C", "note": "[Example 62, N-Ethyl-5-fluoro-N-isopropyl-2-((4-(7-(((2S,5R)-5-((4-methoxyphenyl)sulfonamido)tetrahydro-2H-pyran-2-yl)methyl)-2,7-diazaspiro[3.5]nonan-2-yl)pyrimidin-5-yl)oxy)benzamide]", "IC50": "< 100"},
      {"smiles": "C[C@@H]1COC[C@H](C)N1C(=O)c1cc(F)ccc1Oc1cncnc1N1CC2(CCN(C[C@@H]3CC[C@@H](NS(=O)(=O)N4CCC4)CO3)CC2)C1", "note": "[Example 161, N-((3R,6S)-6-((2-(5-(2-((3R,5S)-3,5-Dimethylmorpholine-4-carbonyl)-4-fluorophenoxy)pyrimidin-4-yl)-2,7-diazaspiro[3.5]nonan-7-yl)methyl)tetrahydro-2H-pyran-3-yl)azetidine-1-sulfonamide]", "IC50": "< 100"},
      {"smiles": "COCCN(C(=O)c1cc(F)ccc1Oc1cncnc1N1CC2(CCN(C[C@@H]3CC[C@@H](NS(=O)(=O)C4CC4)CO3)CC2)C1)C(C)C", "note": "[Example 51, 2-((4-(7-(((2S,5R)-5-(Cyclopropanesulfonamido)tetrahydro-2H-pyran-2-yl)methyl)-2,7-diazaspiro[3.5]nonan-2-yl)pyrimidin-5-yl)oxy)-5-fluoro-N-isopropyl-N-(2-methoxyethyl)benzamide]", "IC50": "< 100"},
      {"smiles": "CC(C)N(CC(F)(F)F)C(=O)c1cc(F)ccc1Oc1nncnc1N1CC2(CCN(C[C@@H]3CC[C@@H](NS(=O)(=O)C4CC4)CO3)CC2)C1", "note": "[Example 191, 2-((5-(7-(((2S,5R)-5-(Cyclopropanesulfonamido)tetrahydro-2H-pyran-2-yl)methyl)-2,7-diazaspiro[3.5]nonan-2-yl)-1,2,4-triazin-6-yl)oxy)-5-fluoro-N-isopropyl-N-(2,2,2-trifluoroethyl)benzamide]", "IC50": "< 100"},
      {"smiles": "CCN(C(=O)c1cc(F)ccc1Oc1cncnc1N1CC2(CCN(C[C@@H]3CC[C@@H](NS(=O)(=O)C4COC4)CO3)CC2)C1)C(C)C", "note": "[Example 5, N-Ethyl-5-fluoro-N-isopropyl-2-((4-(7-(((2S,5R)-5-(oxetane-3-sulfonamido)tetrahydro-2H-pyran-2-yl)methyl)-2,7-diazaspiro[3.5]nonan-2-yl)pyrimidin-5-yl)oxy)benzamide]", "IC50": "< 100"}
    ]}
  ]
}
